Measured values: article PMC9884808, “Pharmacokinetics, tissue distribution, and antitumor activity of a novel compound, NY-2, in non-small cell lung cancer” (Frontiers in Pharmacology, 2023)
Marks after values point to notes of the source that are not given here.

Assays:
Notch1 and integrinβ1 = experiment: Western blot protein analysis; format: cell-based, human
Excerpt: Antibodies against ADAM17 (Cat. No. ab39163), Notch1 (Cat. No. ab52627), integrin β1 (Cat. No. ab52971), β-actin (Cat. No. ab8226), and anti-rabbit IgG (Cat. No. ab6728) and anti-mouse IgG (Cat. No. ab190475) secondary antibodies conjugated with horseradish peroxidase (HRP) were purchased from Abcam (Cambridge, United Kingdom). Total protein was extracted from HCC cells, and samples were separated by SDS-PAGE and blotted to polyvinylidene fluoride (PVDF) membranes (Millipore, Billerica, MA, United States). The membranes were blocked and then incubated with primary antibodies, followed by washing and incubation with HRP-conjugated secondary antibodies. Stained blots were developed with enhanced chemiluminescence reagents (Pierce, Rockford, IL, United States) and imaged on X-ray film.

[1] = Metabolic stability, liver microsome incubation; format: in vitro ADME; conditions: 100 μM
Description: Rat liver microsomes (RLMS) and human liver microsomes (HLMs) were purchased from RILD and BioIVT, respectively.The metabolic stability of 100 μm Zldi-8 and NY-2 in rat and human liver microsomes was investigated. Zldi-8/NY-2(100 ΜM)10 μl, mgcl210 ΜL, RLMs/HLMs 62.5 μl, PBS (ph 7.4)117.5 μl, NADPH 50 ΜL were added to the metabolic incubation system in ice bath, respectively.After adding in sequence, the incubation systems were pre-incubated for 3 min in a 37 ° C incubator, and then NADPH was added to start the reaction, and the incubation systems were removed at 0 min, 5 min, 10 min, 20 min, 30 min, 60 min, 90 min, 50 ΜL incubation solution was taken out respectively, and the reaction was stopped by rapidly adding equal volume of ice acetonitrile solution containing propranolol hydrochloride (internal standard) , vortex for 3 min, centrifugation at 4 ° C, 9500 rpm for 10 min, the content of the supernatant was determined by HPLC.The experiment was repeated three times in parallel.

A549 cells [2] = experiment: Wound-healing migration assay; format: cell-based, human; conditions: 48 h
Description: A wound-healing assay was used to assess the migration ability. Cells were seeded into 6-well plates at 3 × 10^5 cells per well. At about 90% confluence, uniform scratches were made in the monolayer using a sterile 200 μL pipet tip. After washing with phosphate-buffered saline (PBS), the cells were cultured in 2% FBS medium and photos were taken at 0 and 48 h. The rate of cell migration was determined by measuring the decrease in gap with compared to the initial gap at 0 h. Readings were performed independently in triplicate.

A549 cells [3] = conditions: 28 days
Description: The experimental groups included the normal (no tumor cells, vehicle) group, the model (tumor cells, vehicle) group, NY-2-treated, and paclitaxel-treated groups, with six mice in each group. After 7 days for adaptation, 200 µL of A549 cells (2× 10^6 cells/mice) in serum-free medium were injected into the tail vein except for those in the normal group. Drug or vehicle administration via tail vein was started on the next day. The normal group and model group were given the same amount of sterile water containing 1% DMSO and 1% Tween as vehicle control. […] Injections were done every other day. The general conditions of the nude mice, with regard to activity and food ingestion, were observed every day, and their body weight was measured every other day.
KM mice were treated with ZLDI-8 or NY-2 by tail vein injection (6 mg/kg) for 7 days, then the mice were euthanized and liver and kidney tissues were removed and sectioned. For the experiment with BALB/c nude mice, the tail vein injections of NY-2 (6 mg/kg) were continued for 28 days, and the lungs, tumor, heart, liver, and kidney were removed. […] Sections for staining were dewaxed with xylene and then rehydrated, and hematoxylin-eosin staining was performed, after which the sections were again dehydrated in ethanol and cleared with xylene before being mounted on a slide, cover-slipped and examined microscopically. The remainder of the tumors and tissues was frozen in liquid nitrogen for other studies.

HUVECs = experiment: MTT cytotoxicity on normal cells; format: cell-based, human; conditions: concentration of 10 μM or below, 48 h
Description: The human colorectal cancer cell lines, HCT116 and LoVo, the breast cancer cell line, T47D, the hepatocellular carcinoma cell line, HepG2, the normal human liver cell line, HL7702, human umbilical vein endothelial cells (HUVECs), and the non-small cell lung cancer cell lines, A549, H1993, HCC827, H460, were purchased from the American Type Culture Collection (Manassas, VA, United States). Cell lines were cultured in the recommended RPMI-1640 medium (AE24464298, Hyclone, United States) and DMEM medium (AE29422278, Hyclone, United States) supplemented with 10% fetal bovine serum (FBS; JC63470, FB15015, Clark, United States) with 1% penicillin-streptomycin. […]
Cell viability was measured by the MTT assay. […] An assay kit (WLA073, Wanlei Co., Liaoning, China), was used according to the manufacturer’s instructions to measure LDH activity, The absorbance at 450 nm was measured with a microplate reader (Elx-800, Bio-Rad, China).
First, the effects of NY-2 and ZLDI-8 on the survival rates of four NSCLC cell lines, A549, H1993, HCC827, H460, were compared by the MTT cytotoxicity assay. The various types of NSCLC cells were incubated with increasing concentrations of NY-2 and ZLDI-8 (1.25, 2.5, 5, 10, and 20 μM), and the cell viability at 48 h was measured. […]

[4] = nude mice, NY-2 6 mg/kg, paclitaxel 1 mg/kg, n=6, mean ± SEM

## Cc1c(C=C2C(=O)NC(=S)NC2=O)c2ccccc2n1CCOc1ccc(F)cc1 [NY-2]
Notch1 and integrinβ1
  expression of Notch1 and integrinβ1: reduced the expression of Notch1 and integrinβ1in a dose-dependence manner
[1]; human liver microsomes
  residual level (metabolic stability): greater than that of ZLDI-8
[1]; rat liver microsomes
  residual level (metabolic stability): greater than that of ZLDI-8
A549 cells [2]
  migration of A549 cells: inhibit the invasion and migration of A549 cells in a concentration-dependent manner
A549 cells [3]; nude mice with A549 lung metastasis, tail vein every other day, NY-2 6 mg/kg, paclitaxel 1 mg/kg, n=6, mean ± SEM
  Body weight before dissection: 23.48 ± 0.50 g
A549 cells [3]; [4]
  Heart as a proportion of body weight: 0.56 ± 0.03 10^-2
  Kidney as a proportion of body weight: 1.74 ± 0.03 10^-2
  Liver as a proportion of body weight: 5.45 ± 0.05# 10^-2
  Lung as a proportion of body weight: 0.67 ± 0.03 10^-2
  Quality of the heart: 0.13 ± 0.01 g
  Quality of the kidney: 0.41 ± 0.01 g
  Quality of the liver: 1.28 ± 0.04 g
  Quality of the lung: 0.16 ± 0.01 g
A549 cells [3]; nude mice, A549 tail vein, NY-2 6 mg/kg every other day, model group 12.91 ± 11.93%
  average percentage of metastatic lung surface area to the total lung area: 0.25 ± .62%
A549 cells [3]; nude mice, NY-2 6 mg/kg, paclitaxel 1 mg/kg
  infiltration of A549 cells in the lung tissue (H&E): no infiltration of A549 cells in the lung tissue
A549 cells [3]; nude mice, tail vein injection 6 mg/kg
  toxic effects on the heart, liver or kidney (H&E): no obvious toxic effects
HUVECs
  cytotoxic effects on HUVEC cells: no obvious cytotoxic effects
